Source: publication PMC8152350, “High cytotoxicity of betulin towards fish and murine fibroblasts: Is betulin safe for nonneoplastic cells?” (BMC Veterinary Research, 2021)
“And” between values parts separate entries of the source, which are not always exact repeats. Equal values may be shown once.

Assays:
NIH/3T3 cells = test: MTT assay (mitochondrial activity), murine fibroblasts
Procedure: NIH/3T3 (ATCC CRL-1658) mouse embryonic fibroblasts were grown in Dulbecco’s modified Eagle’s medium (DMEM) supplemented with 2 mM glutamine, 10 % foetal bovine serum and a 1 % antibiotic-antimycotic solution at 37 °C in a humidified atmosphere with 5 % CO2.
NIH/3T3 and BF-2 cells were seeded in 96-well plates at a density of 1 × 10^4 or 2 × 10^4 cells per well, respectively. After 24 h of incubation at an appropriate temperature, cells were exposed to betulin at the concentrations mentioned above for 24, 48 and 72 h. Control (untreated) cells served as the negative control and a reference point. Triton X-100 treated cells served as the positive internal control in MTT, NRU and LDH assays. Due to the specific character of SRB assay, there was no positive control in this test. After 24, 48 and 72 h of treatment, the four different cytotoxicity assays were performed. All experiments were repeated three times.
The MTT assay is used to estimate mitochondrial damage, since it determines the activity of mitochondrial enzymes. These enzymes reduce the water-soluble tetrazolium dye MTT to insoluble purple formazan, which accumulates inside viable cells.
The MTT assay was conducted using the protocol described by Mosmann, with some modifications described in our previous article.
The MTT assay was used to determine the cytotoxicity of both betulin and the vehicle (DMSO).
All experiments were repeated three times. […] Statistical analyses were performed using GraphPad Prism software (GraphPad Software, USA). Data were subjected to one-way analysis of variance (ANOVA). Dunnett’s posttest was used to determine differences between control and betulin-exposed cells at the same time points. Differences between the two cell lines at the same time points were determined using Student’s t-test. The 50 % cytotoxic concentrations (CC50, defined as the concentration of the compound that reduced cell viability by 50 %) were calculated using the Quest Graph™ ED50 Calculator (AAT Bioquest, Inc.).

[1] = system: murine Balb/3T3 fibroblasts; design: method as in PMID 16112835; settings: Balb/3T3, MTT assay; cited from earlier work
[2] = system: GSF3.2 goat skin fibroblasts; design: method as in earlier work; settings: GSF3.2, trypan blue; cited from earlier work
BF-2 cells = test: MTT assay (mitochondrial activity), fish fibroblasts; type: cell-based, bluegill
Procedure: BF-2 (ATCC CCL-91) bluegill caudal trunk fibroblasts were grown in minimum essential medium (Eagle, EBSS) supplemented with 1 % nonessential amino acids (NEAAs), 10 % foetal bovine serum and 1 % antibiotic-antimycotic solution at 23 °C in a humidified atmosphere with 5 % CO2.
All experiments were repeated three times.

What does the source list for C[S+](C)[O-] [DMSO, Dimethyl sulfoxide]?
CC50 DMSO (MTT) 24 h (NIH/3T3 cells; NIH/3T3, 24 h, mean ± SD, n = 3): 2.989 ± 0.159%; CC50 DMSO (MTT) 48 h (NIH/3T3 cells; NIH/3T3, 48 h, mean ± SD, n = 3): 2.374 ± 0.395%; CC50 DMSO (MTT) 72 h (NIH/3T3 cells; NIH/3T3, 72 h, mean ± SD, n = 3): 1.635% and 1.635 ± 0.423%; maximum tolerable DMSO concentration (NIH/3T3 cells; NIH/3T3, concentration at which viability exceeded 90 % throughout the experiment): 0.625%; DMSO concentration with absence of any measurable activity of mitochondria (NIH/3T3 cells; murine fibroblasts, MTT): 10%; IC50 of DMSO [1]: 2.75%; DMSO concentrations giving significant increase in the number of live cells [2]: less than 0.1%; CC50 DMSO (MTT) 24 h (BF-2 cells; BF-2, 24 h, mean ± SD, n = 3): 5.031 ± 0.423%; CC50 DMSO (MTT) 48 h (BF-2 cells; BF-2, 48 h, mean ± SD, n = 3): 4.434 ± 0.717%; CC50 DMSO (MTT) 72 h (BF-2 cells; BF-2, 72 h, mean ± SD, n = 3): 4.794% and 4.794 ± 0.337%; maximum tolerable DMSO concentration (BF-2 cells; BF-2, concentration at which viability exceeded 90 % throughout the experiment): 1.25%; DMSO concentration with absence of any measurable activity of mitochondria (BF-2 cells; fish fibroblasts, MTT): 20%
